Where two headings read alike, the source gives them in different places.
Key:
[1] = test system: NNRTI-resistant double-mutant strain K103N+Y181C (RES056); experiment: microbe, parasite or virus in culture; type: cell-based, HIV-1; details: for EC50: Human immunodeficiency virus 1, MT4, read-out: EC50 RES056; for SI RES056: selectivity index, ratio of CC50/EC50, strain RES056
Experimental: (§1) Antiviral potency was evaluated in MT-4 cell cultures infected with WT HIV-1 strain (IllB) as well as cells infected with a panel of NNRTI-resistant double-mutant strain K103N+Y181C (RES056).
(§2) Selected compounds were screened for inhibitory activity against HIV-1 using MTT method as describe previously by Christophe. Pannecouque et al. Nat. Protoc. […] And in vitro anti-HIV activity of compounds were supported by Rega Institute for Medical Research. The MTT assay is based on the reduction of the yellow colored 3-(4,5-dimethylthiazol-2-yl)-2,5-diphenyltetrazolium bromide (MTT) by mitochondrial dehydrogenases of metabolically active cells to a blue formazan which can be measured spectrophotometrically. Tested optical density served as an indicator for live cells, and survival rate can be concluded by testing the optical density of 540 nm and 690 nm. MT-4 cells infected with HIV-1 can only survive for 5 to 7 days without any treatment, but when HIV-1 inhibitors were added, they can protect MT-4 cell from cytopathic. Serial solution of compounds was added to MT-4 cells after infected with HIV-1, MTT method was used to detect the survival rate after culture for 5 to 7 days.
(§3) (1) MT-4 cells infected with HIV-1 viral strains (IIIB, Y181C/K103N) were provided by Rega Institute for Medical Research, Katholieke Universiteit Leuven, Belgium.
(§4) (3) Preparation of compounds: Stock solutions (10×final concentration) of test compounds is diluted with double distilled H2O for 5 folds and 5 concentrations of one compound are prepared.
(§5) (5) Test method (MTT method): Serial five-fold dilutions of test compounds were added to cultured MT-4 cells infected with HIV-1, after 5 to 7 days, MTT was added and cultured for a few hours.
(§6) The MTT method was described briefly as follows: stock solutions (10×final concentration) of test compounds were added in 25 μL volumes to two series of triplicate wells in order to allow simultaneous evaluation of the effects on mock- and HIV-infected cells. Using a Biomek 3000 robot (Beckman Instruments, Fullerton, Calif.), serial five-fold dilutions of the test compounds (final 200 μL volume per well) were made directly in flat-bottomed 96-well microtiter trays, including untreated control HIV-1 and mock-infected cell samples for each sample. […] Mock-infected cells were used to evaluate the effect of test compounds on uninfected cells to assess cytotoxicity. Exponentially growing MT-4 cells were centrifuged for 5 min at 1000 rpm and the supernatant was discarded. […] At five days after infection, the viability of mock- and HIV-infected cells was determined spectrophotometrically by means of MTT assay.
(§7) The MTT assay is based on the reduction of yellow-colored MTT (Acros Organics, Geel, Belgium) by mitochondrial dehydrogenase of metabolically active cells to form a blue-purple formazan that can be measured spectrophotometrically. The absorbances were read in an eight-channel computer-controlled photometer, at the wavelengths of 540 and 690 nm. All data were calculated using the median optical density (OD) value of three wells.

WT HIV-1 strain (IIIB) = experiment: Anti-HIV-1 activity in MT-4 cells, MTT method, wild-type strain IIIB; type: cell-based; details: for SI IIIB: selectivity index, ratio of CC50/EC50, strain IIIB; for EC50: Human immunodeficiency virus 1, IIIB, MT4, read-out: EC50 IIIB
Experimental: as §1, §2, §3, §4, §5, §6, §7

mock-infected MT-4 cells = experiment: Cytotoxicity in mock-infected MT-4 cells, MTT method; type: cell-based; details: human, 5 days
Experimental: (§8) The MTT method was described briefly as follows: stock solutions (10×final concentration) of test compounds were added in 25 μL volumes to two series of triplicate wells in order to allow simultaneous evaluation of the effects on mock- and HIV-infected cells. Using a Biomek 3000 robot (Beckman Instruments, Fullerton, Calif.), serial five-fold dilutions of the test compounds (final 200 μL volume per well) were made directly in flat-bottomed 96-well microtiter trays, including untreated control HIV-1 and mock-infected cell samples for each sample. HIV-1 (IIIB) and mutant HIV-1 strains stock (50 μL at 100-300 CCID50) or culture medium was added to either the infected or mock-infected wells of the microtiter tray. Mock-infected cells were used to evaluate the effect of test compounds on uninfected cells to assess cytotoxicity. Exponentially growing MT-4 cells were centrifuged for 5 min at 1000 rpm and the supernatant was discarded. The MT-4 cells were resuspended at 6×10^5 cells/mL, and 50 μL aliquots were transferred to the microtiter tray wells. At five days after infection, the viability of mock- and HIV-infected cells was determined spectrophotometrically by means of MTT assay.
as §7

[2] = as above; type: cell-based; details: human
Experimental: as §8, §7

[3] = concentration reducing viability of mock-infected MT-4 cell cultures by 50%, MTT method, read-out: CC50

SMILES	EC50 [1]	SI RES056 [1]	SI IIIB (WT HIV-1 strain (IIIB))	CC50 (mock-infected MT-4 cells)	CC50 at 5 days ([2]; CC50)	EC50 (WT HIV-1 strain (IIIB))	CC50 at 5 days [2, 3]	CC50 at 5 days ([2]; mock-infected MT-4 cells, concentration reducing viability of mock-infected MT-4 cell cultures by 50%, MTT method, read-out: CC50)
Cc1cc(C#N)cc(C)c1Oc1nc(NC2CCN(Cc3ccc(S(N)(=O)=O)cc3)CC2)nc2c1SCC2 [Compound A1, 4-((4-((4-(4-cyano-2,6-dimethylphenoxy)-6,7-dihydrothieno[3,2-d]pyrimidin-2-yl)amino)piperidin-1-yl)methyl)benzenesulfonamide]	28.8 ± 1.2 nM	692	4584	19900 ± 10100 nM				
Cc1cc(C#N)cc(C)c1Oc1nc(NC2CCN(Cc3ccc(C(N)=O)cc3)CC2)nc2c1SCC2 [Compound A2, 4-((4-((4-(4-cyano-2,6-dimethylphenoxy)-6,7-dihydrothieno[3,2-d]pyrimidin-2-yl)amino)piperidin-1-yl)methyl)benzamide]	43.6 ± 5 nM	3804	34162	165000 ± 36900 nM				
Cc1cc(C#N)cc(C)c1Oc1nc(NC2CCN(Cc3ccc(S(C)(=O)=O)cc3)CC2)nc2c1SCC2 [Compound A3, 3,5-dimethyl-4-((2-((1-(4-(methylsulfonyl)benzyl)piperidin-4-yl)amino)-6,7-dihydrothieno[3,2-d]pyrimidin-4-yl)oxy)benzonitrile]	46.6 ± 7.8 nM	257	2025	11900 ± 5570 nM				
Cc1cc(C#N)cc(C)c1Oc1nc(NC2CCN(Cc3ccncc3)CC2)nc2c1SCC2 [Compound A4, 3,5-dimethyl-4-((2-((1-(pyridin-4-ylmethyl)piperidin-4-yl)amino)-6,7-dihydrothieno[3,2-d]pyrimidin-4-yl)oxy)benzonitrile]	46 ± 1.9 nM	≥2305	≥40104		≥ 106000 nM			
Cc1cc(C#N)cc(C)c1Oc1nc(NC2CCN(Cc3ccc([N+](=O)[O-])cc3)CC2)nc2c1SCC2 [Compound A5, 3,5-dimethyl-4-((2-((1-(4-nitrobenzyl)piperidin-4-yl)amino)-6,7-dihydrothieno[3,2-d]pyrimidin-4-yl)oxy)benzonitrile]	495 ± 1.3 nM	12	770	6180 ± 1740 nM				
Cc1cc(C#N)cc(C)c1Oc1nc(NC2CCN(Cc3cccc(C(N)=O)c3)CC2)nc2c1SCC2 [Compound A6, 3-((4-((4-(4-cyano-2,6-dimethylphenoxy)-6,7-dihydrothieno[3,2-d]pyrimidin-2-yl)amino)piperidin-1-yl)methyl)benzamide]	629 nM	≥355	≥8048		≥ 223000 nM			
Cc1cc(C#N)cc(C)c1Oc1nc(NC2CCN(Cc3ccc(S(N)(=O)=O)cc3)CC2)nc2c1COC2 [Compound B1, 4-((4-((4-(4-cyano-2,6-dimethylphenoxy)-5,7-dihydrofuro[3,4-d]pyrimidin-2-yl)amino)piperidin-1-yl)methyl)benzenesulfonamide]	38 ± 7.5 nM	604	11167		22900 ± 2890 nM	2 ± 0.2 nM		
Cc1cc(C#N)cc(C)c1Oc1nc(NC2CCN(Cc3ccc(S(C)(=O)=O)cc3)CC2)nc2c1COC2 [Compound B3, 3,5-dimethyl-4-((2-((1-(4-(methylsulfonyl)benzyl)piperidin-4-yl)amino)-5,7-dihydrofuro[3,4-d]pyrimidin-4-yl)oxy)benzonitrile]	41.6 ± 4.9 nM	648	14414		27000 ± 3030 nM	1.8 nM		
Cc1cc(C#N)cc(C)c1Oc1nc(NC2CCN(Cc3ccncc3)CC2)nc2c1COC2 [Compound B4, 3,5-dimethyl-4-((2-((1-(pyridin-4-ylmethyl)piperidin-4-yl)amino)-5,7-dihydrofuro[3,4-d]pyrimidin-4-yl)oxy)benzonitrile]	43.1 ± 1.2 nM	753	11414		32500 ± 10000 nM	2.8 nM		
Cc1cc(C#N)cc(C)c1Oc1nc(NC2CCN(Cc3ccc([N+](=O)[O-])cc3)CC2)nc2c1COC2 [Compound B5, 3,5-dimethyl-4-((2-((1-(4-nitrobenzyl)piperidin-4-yl)amino)-5,7-dihydrofuro[3,4-d]pyrimidin-4-yl)oxy)benzonitrile]	511 ± 165 nM	≥22	≥1497		≥ 11100 nM			
Cc1cc(C#N)cc(C)c1Oc1nc(NC2CCN(Cc3cccc(C(N)=O)c3)CC2)nc2c1COC2 [Compound B6, 3-((4-((4-(4-cyano-2,6-dimethylphenoxy)-5,7-dihydrofuro[3,4-d]pyrimidin-2-yl)amino)piperidin-1-yl)methyl)benzamide]	1030 ± 51.1 nM				> 250000 nM	7.8 ± 3.4 nM		
Cc1cc(C#N)cc(C)c1Oc1nc(NC2CCN(Cc3ccc(C(N)=O)cc3)CC2)nc2c1CCC2 [Compound C2, 4-((4-((4-(4-cyano-2,6-dimethylphenoxy)-6,7-dihydro-5H-cyclopenta[d]pyrimidin-2-yl)amino)piperidin-1-yl)methyl)benzamide]	173 ± 110 nM	>1448	>40984		> 251000 nM			
Cc1cc(C#N)cc(C)c1Oc1nc(NC2CCN(Cc3ccc(S(C)(=O)=O)cc3)CC2)nc2c1CCC2 [Compound C3, 3,5-dimethyl-4-((2-((1-(4-(methylsulfonyl)benzyl)piperidin-4-yl)amino)-6,7-dihydro-5H-cyclopenta[d]pyrimidin-4-yl)oxy)benzonitrile]	54.7 ± 6.22 nM	>5020			> 274000 nM	1.8 ± 0.7 nM	> 200000 nM	
Cc1cc(C#N)cc(C)c1Oc1nc(NC2CCN(Cc3ccncc3)CC2)nc2c1CCC2 [Compound C4, 3,5-dimethyl-4-((2-((1-(pyridin-4-ylmethyl)piperidin-4-yl)amino)-6,7-dihydro-5H-cyclopenta[d]pyrimidin-4-yl)oxy)benzonitrile]	26800 nM	9			205000 ± 1130 nM	2 ± 0.5 nM	> 200000 nM	
Cc1cc(C#N)cc(C)c1Oc1nc(NC2CCN(Cc3ccc([N+](=O)[O-])cc3)CC2)nc2c1CCC2 [Compound C5, 3,5-dimethyl-4-((2-((1-(4-nitrobenzyl)piperidin-4-yl)amino)-6,7-dihydro-5H-cyclopenta[d]pyrimidin-4-yl)oxy)benzonitrile]	187 nM	40	1495		7450 ± 930 nM	4.9 ± 0.8 nM		
Cc1cc(C#N)cc(C)c1Oc1nc(NC2CCN(Cc3cccc(C(N)=O)c3)CC2)nc2c1CCC2 [Compound C6, 3-((4-((4-(4-cyano-2,6-dimethylphenoxy)-6,7-dihydro-5H-cyclopenta[d]pyrimidin-2-yl)amino)piperidin-1-yl)methyl)benzamide]	941 ± 368 nM	9	599		8730 ± 3530 nM	14.5 ± 3.6 nM		
Cc1cc(C#N)cc(C)c1Oc1nc(Nc2ccc(C#N)cc2)nc(N)c1Br [ETR, Etravirine, reference compound]					> 4590 nM			
Cc1ccnc2c1NC(=O)c1cccnc1N2C1CC1 [NVP, Nevirapine, reference compound]	> 9510 nM					163 ± 41.2 nM		> 9510 nM

— patent US11084830B2, “Five-membered non aromatic ring-pyrimidine HIV-1 reverse transcriptase inhibitor, preparation method therefor, and uses thereof” (priority 2018, dated 2021)
